# Laboratory results as given in US9212226B2, “Amino acid sequences directed against CXCR4 and other GPCRs and compounds comprising the same” (Ablynx N.V., priority 2008, dated 2015).
# Entries after “also recorded” stand apart in the source; their conditions may differ.
# Columns and labels:
# CXCR4 [1] = molecular target: T1, CXCR4 (Homo sapiens, UniProt P61073); assay: [125I]-CXCL12 competition binding on membranes from HEK293T cells transiently expressing CXCR4; conditions: membranes from HEK293T cells transiently expressing CXCR4; mean ± S.E.M.
# T1 sequence (P61073 whole entry): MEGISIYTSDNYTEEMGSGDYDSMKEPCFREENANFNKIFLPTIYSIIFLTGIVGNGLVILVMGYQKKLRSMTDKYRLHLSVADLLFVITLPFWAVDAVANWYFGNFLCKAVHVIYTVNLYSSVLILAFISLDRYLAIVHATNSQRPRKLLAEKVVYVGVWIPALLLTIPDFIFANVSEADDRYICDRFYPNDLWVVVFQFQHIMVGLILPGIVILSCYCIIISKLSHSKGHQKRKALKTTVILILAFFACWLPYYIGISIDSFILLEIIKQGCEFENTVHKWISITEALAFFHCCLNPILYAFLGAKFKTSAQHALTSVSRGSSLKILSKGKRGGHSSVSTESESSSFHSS
# Description: (§1) HEK293T cells were maintained at 37° C. in a humidified 5% CO2, 95% air atmosphere in Dulbecco's modified Eagle's medium (DMEM) containing 2 mM L-glutamine, 50 IU/ml penicillin, 50 μg/ml streptomycin, and 10% (v/v) fetal calf serum. Jurkat cells were cultured in a humidified 5% CO2, 95% air atmosphere in a 1:1 mixture of Dulbecco's modified Eagle's medium (DMEM) and Ham's F12 medium containing 2 mM L-glutamine, 50 IU/ml penicillin, 50 μg/ml streptomycin, and 10% (v/v) fetal calf serum. […] [^125 I]-Labelling— Radiolabeling of Nanobodies with ^125I was performed using the Iodo-gen method (Pierce, Rockford, Ill.) according to the manufacturer's protocol. ^125I-labeled Nanobodies was separated from free iodine (>99%) using a Sephadex G-25 gel filtration column (Amersham Biosciences, Piscataway, N.J.). […] Competition Binding Assays— Membranes from HEK293T cells transiently expressing CXCR3 or CXCR4 were prepared 48 h after transfection as follows. Cells were washed and scraped from the cell culture dishes with ice-cold PBS containing 1 mm EDTA. The scraped cells were pelleted at 1500×g for 10 min at 4° C. The pellet was washed and then resuspended in ice-cold membrane buffer (15 mM Tris, pH 7.5, 1 mM EGTA, 0.3 mM EDTA, and 2 mM MgCl2). The cell suspension was homogenized by 10 strokes at 1200 rpm using a Teflon-glass homogenizer and rotor and further subjected to three freeze-thaw cycles using liquid nitrogen. Membranes were separated by centrifugation at 40,000 g for 25 min at 4° C. The membrane pellet was washed and resuspended in ice-cold Tris-sucrose buffer (20 mM Tris, pH 7.4, and 250 mM sucrose) and frozen in liquid nitrogen. The total protein was determined using a Bradford assay (Bio-Rad). […] Membranes were then harvested over polyethylenimine (0.5%)-treated Whatman GF/C filter plates and washed three times with ice cold binding buffer containing 500 mM NaCl. Plates were counted by liquid scintillation. Inositol Phosphate Accumulation Assay— 24 hours post transfection with pcDNA3.1-CXCR4 and pcDNA1-HA-mG {alpha} qi5 (see Verzijl et al, 2008 supra), 250.000 cells were seeded into 24-wells plates and labelled overnight using inositol-free minimal essential medium supplemented with 1 μCi myo-[2-^3H]-inositol. The next day, the cells were washed once to remove not incorporated myo-[2-^3H]-inositol. […] In agonist experiments, the cells were directly stimulated with test compounds and LiCl (10 mM) in assay buffer for 2 h at 37° C. The stimulation was stopped by aspirating the stimulation medium and adding ice-cold 10 mM formic acid. The accumulated inositol phosphates were isolated by anion exchange chromatography and counted by liquid scintillation. CRE Reporter Gene Assay— HEK239T cells were transfected with pCRE/β-galactosidase (Chen W, Shields T S, Stork P J S, Cone R D (1995) Anal Biochem 226:349-354) and plasmids (pcDEF3 or pcDNA3.1) encoding the indicated receptors. 40,000 transfected cells per well were seeded into 96 well plates and grown in DMEM supplemented with 10% fetal calf serum. The medium was replaced 32 h after transfection by serum-free DMEM supplemented with 0.5% bovine serum albumin and ligands as indicated. […] The β-galactosidase activity was determined by the measurement of absorption at 420 nm with a PowerwaveX340 plate reader (Bio-Tek Instruments Inc., Winooski, Vt.) after incubation with the assay buffer when the OD420 value for forskolin (3 μM) controls reached 0.4-0.6. Chemotaxis Assay— The chemotactic responsiveness of Jurkat 3D cells was assessed using ChemoTx™ plates (Receptor Technologies Ltd., Oxon, UK) in which a upper cell-containing compartment is separated from a lower chemoattractant-containing compartment by a polyvinylpyrollidone-free polycarbonate filter with 5-μm pores. Cells were harvested, washed and resuspended in RPMI containing 0.5% bovine serum albumin and then loaded to 150,000 cells per well in a volume of 25 μl into the upper compartment of the chemotaxis chamber.
# CXCR4 [2] = molecular target: T1, CXCR4; assay: [125I]-238D2 competition binding on membranes from HEK293T cells transiently expressing CXCR4
# Description: as §1
# CXCR4 [3] = molecular target: T1, CXCR4; assay: [125I]-238D4 competition binding on membranes from HEK293T cells transiently expressing CXCR4
# Description: as §1
# CXCR4 (N119A) = CXCR4 (N119A) (Homo sapiens, UniProt P61073, N119A); assay: Basal inositol phosphate accumulation in HEK293T cells expressing CXCR4 (N119A); format: cell-based
# Sequence of CXCR4 (N119A) (P61073 whole entry N119A): as the sequence (P61073 whole entry) above, with N119A counted along it
# Description: HEK293T cells were maintained at 37° C. in a humidified 5% CO2, 95% air atmosphere in Dulbecco's modified Eagle's medium (DMEM) containing 2 mM L-glutamine, 50 IU/ml penicillin, 50 μg/ml streptomycin, and 10% (v/v) fetal calf serum. Jurkat cells were cultured in a humidified 5% CO2, 95% air atmosphere in a 1:1 mixture of Dulbecco's modified Eagle's medium (DMEM) and Ham's F12 medium containing 2 mM L-glutamine, 50 IU/ml penicillin, 50 μg/ml streptomycin, and 10% (v/v) fetal calf serum. […] [^125 I]-Labelling— Radiolabeling of Nanobodies with ^125I was performed using the Iodo-gen method (Pierce, Rockford, Ill.) according to the manufacturer's protocol. ^125I-labeled Nanobodies was separated from free iodine (>99%) using a Sephadex G-25 gel filtration column (Amersham Biosciences, Piscataway, N.J.). […] Competition Binding Assays— Membranes from HEK293T cells transiently expressing CXCR3 or CXCR4 were prepared 48 h after transfection as follows. Cells were washed and scraped from the cell culture dishes with ice-cold PBS containing 1 mm EDTA. The scraped cells were pelleted at 1500×g for 10 min at 4° C. The pellet was washed and then resuspended in ice-cold membrane buffer (15 mM Tris, pH 7.5, 1 mM EGTA, 0.3 mM EDTA, and 2 mM MgCl2). The cell suspension was homogenized by 10 strokes at 1200 rpm using a Teflon-glass homogenizer and rotor and further subjected to three freeze-thaw cycles using liquid nitrogen. Membranes were separated by centrifugation at 40,000 g for 25 min at 4° C. The membrane pellet was washed and resuspended in ice-cold Tris-sucrose buffer (20 mM Tris, pH 7.4, and 250 mM sucrose) and frozen in liquid nitrogen. The total protein was determined using a Bradford assay (Bio-Rad). Periplasmas (1:10) or ligands were pre-incubated with membranes in binding buffer (50 mM HEPES (pH 7.4), 1 mM CaCl2, 5 mM MgCl2, 100 mM NaCl, 0.5% bovine serum albumin) supplemented with 0.5% BSA for 1 h at 22° C. before the addition of [^125I]-CXCL12 (40 pM) or [^125I]-238D2 (3 nM) or [^125I]-238D4 (3 nM) for additional 2 h at 22° C. […] Membranes were then harvested over polyethylenimine (0.5%)-treated Whatman GF/C filter plates and washed three times with ice cold binding buffer containing 500 mM NaCl. Plates were counted by liquid scintillation. Inositol Phosphate Accumulation Assay— 24 hours post transfection with pcDNA3.1-CXCR4 and pcDNA1-HA-mG {alpha} qi5 (see Verzijl et al, 2008 supra), 250.000 cells were seeded into 24-wells plates and labelled overnight using inositol-free minimal essential medium supplemented with 1 μCi myo-[2-^3H]-inositol. The next day, the cells were washed once to remove not incorporated myo-[2-^3H]-inositol. […] In agonist experiments, the cells were directly stimulated with test compounds and LiCl (10 mM) in assay buffer for 2 h at 37° C. The stimulation was stopped by aspirating the stimulation medium and adding ice-cold 10 mM formic acid. The accumulated inositol phosphates were isolated by anion exchange chromatography and counted by liquid scintillation. CRE Reporter Gene Assay— HEK239T cells were transfected with pCRE/β-galactosidase (Chen W, Shields T S, Stork P J S, Cone R D (1995) Anal Biochem 226:349-354) and plasmids (pcDEF3 or pcDNA3.1) encoding the indicated receptors. 40,000 transfected cells per well were seeded into 96 well plates and grown in DMEM supplemented with 10% fetal calf serum. The medium was replaced 32 h after transfection by serum-free DMEM supplemented with 0.5% bovine serum albumin and ligands as indicated. […]
# [4] = membranes from HEK293T cells transiently expressing CXCR4, mean ± S.E.M.
Displacem. (%) of [125I]-CXCL12 (maximal displacement) (CXCR4 [1]) [%],displacement of [125I]-238D2 from CXCR4 (CXCR4 [2]; [125I]-238D2 3 nM),Displacem. (%) of [125I]-238D2 (maximal displacement) (CXCR4 [2]; [4]) [%],displacement of [125I]-238D4 from CXCR4 (CXCR4 [3]; [125I]-238D4 3 nM),Displacem. (%) of [125I]-238D4 (maximal displacement) (CXCR4 [3]; [4]) [%],"effect on the nanobody-induced reduction of basal inositol phosphate accumulation (CXCR4 (N119A); with 238D4, L3 and L8)",stimulation of the mutant receptor (CXCR4 (N119A); inositol phosphate accumulation) [fold over basal],Compound,"functional profile at CXCR4 (N119A) (CXCR4 (N119A); ligand-induced alteration of basal inositol phosphate accumulation, listed as plerixafor)"
94 ± 2,displaces,102 ± 1,displaces,99 ± 4,antagonized,–,"c1cc(CN2CCCNCCNCCCNCC2)ccc1CN1CCCNCCNCCCNCC1 [AMD3100, reference compound]",neutral antagonist; also recorded: Neither significant agonistic nor inverse antagonistic activity
–,–,–,–,–,–,0.4,"CXCL12: stromal-derived-factor-1, the natural (endogenous) ligand for CXCR4 [reference compound]",–
